Read-outs that look alike come from different tables or passages of the source.
Experiments:
Assay in all cases: MIC, agar dilution (MHA), compound alone
Format in all cases: cell-based
E. coli NCTC 13353 = conditions: E. coli NCTC 13353, compound alone, MHA, 35° C., 18 hours
Description: (§1) The biological activity of representative compounds according to the invention against various bacterial strains was investigated. The Minimum Inhibitory Concentration (MIC) determination for the combinations was carried out in Muller Hinton Agar (MHA) (BD, USA) according to Clinical and Laboratory Standards Institute (CLSI) recommendations, (Clinical and Laboratory Standards Institute (CLSI), Performance Standards for Antimicrobial Susceptibility Testing, 20th Informational Supplement, M 100-S20, Volume 30, No. 1, 2010). In short, the test strains were adjusted to deliver about 10^4 CFU per spot with a multipoint inoculator (Applied Quality Services, UK). The plates were poured with MHA containing doubling concentration range of representative compounds according to present invention. The plates were inoculated and were incubated at 35° C. for 18 hours. […] The Table 5 depicts the antibacterial activity profile of compounds according to present invention against various multidrug resistant bacterial strains.

E. coli 7 MP = conditions: E. coli 7 MP, compound alone, MHA, 35° C., 18 hours
Description: as §1

[1] = system: K. pneumoniae ATCC 700603; conditions: K. pneumoniae ATCC 700603, compound alone, MHA, 35° C., 18 hours
Description: as §1

E. coli NCTC 13352 = conditions: E. coli NCTC 13352, compound alone, MHA, 35° C., 18 hours
Description: as §1

K. pneumoniae H521 = conditions: K. pneumoniae H521, compound alone, MHA, 35° C., 18 hours
Description: as §1

K. pneumoniae H525 = conditions: K. pneumoniae H525, compound alone, MHA, 35° C., 18 hours
Description: as §1

E. coli M 50 = conditions: E. coli M 50, compound alone, MHA, 35° C., 18 hours
Description: as §1

[2] = Escherichia coli, NCTC13353, read-out: MIC
[3] = Escherichia coli, read-out: MIC
[4] = Klebsiella pneumoniae, ATCC700603, read-out: MIC
[5] = Escherichia coli, NCTC13352, read-out: MIC
[6] = Klebsiella pneumoniae, read-out: MIC
[7] = Escherichia coli, M50, read-out: MIC

Row | MIC (E. coli NCTC 13353; [2]) | MIC (E. coli 7 MP; [3]) | MIC [1, 4] | MIC (E. coli NCTC 13352; [5]) | MIC (K. pneumoniae H521; [6]) | MIC (K. pneumoniae H525; [6]) | MIC (E. coli M 50; [7]) | SMILES | MIC (E. coli NCTC 13353) | MIC (E. coli 7 MP) | MIC [1] | MIC (E. coli NCTC 13352) | MIC (K. pneumoniae H521) | MIC (K. pneumoniae H525) | MIC (E. coli M 50)
1 | 32 mg/L | 16 mg/L | 0.5 mg/L | 4 mg/L | 32 mg/L | 32 mg/L | > 32 mg/L | CO/N=C(\C(=O)N[C@@H]1C(=O)N2C(C(=O)[O-])=C(C[N+]3(C)CCCC3)CS[C@H]12)c1csc(N)n1 [Cefepime, reference compound] |  |  |  |  |  |  | 
2 |  |  |  |  |  |  |  | O=C(Cn1ccnc1)NNC(=O)[C@@H]1CC[C@@H]2CN1C(=O)N2OS(=O)(=O)O.[Na] [Example 2, Sodium salt of (2S,5R)-N′-(1H-imidazol-1-ylacetyl)-7-oxo-6-(sulfooxy)-1,6-diazabicyclo[3.2.1]octane-2-carbohydrazide] | 0.25 mg/L | 1 mg/L | >32 mg/L | 0.5 mg/L | 1 mg/L | 1 mg/L | 0.5 mg/L
3 | 0.5 mg/L | 1 mg/L | > 32 mg/L | 0.5 mg/L | 1 mg/L | 1 mg/L | 0.5 mg/L | O=C(Cn1ncnn1)NNC(=O)[C@@H]1CC[C@@H]2CN1C(=O)N2OS(=O)(=O)[O-].[Na+] [Example 4] |  |  |  |  |  |  | 
4 | 0.5 mg/L | 2 mg/L | > 32 mg/L | 0.5 mg/L | 2 mg/L | 2 mg/L | 1 mg/L | CCOC(=O)c1nnnn1CC(=O)NNC(=O)[C@@H]1CC[C@@H]2CN1C(=O)N2OS(=O)(=O)[O-].[Na+] [Example 5] |  |  |  |  |  |  | 
5 | 1 mg/L | 2 mg/L | > 32 mg/L | 1 mg/L | 2 mg/L | 2 mg/L | 1 mg/L | O=C(Cn1nccn1)NNC(=O)[C@@H]1CC[C@@H]2CN1C(=O)N2OS(=O)(=O)[O-].[Na+] [Example 6] |  |  |  |  |  |  | 
6 | 0.5 mg/L | 1 mg/L | > 32 mg/L | 0.5 mg/L | 1 mg/L | 1 mg/L | 0.5 mg/L | O=C(Cn1ccnn1)NNC(=O)[C@@H]1CC[C@@H]2CN1C(=O)N2OS(=O)(=O)[O-].[Na+] [Example 7] |  |  |  |  |  |  | 
7 | 0.5 mg/L | 2 mg/L | > 32 mg/L | 0.5 mg/L | 1 mg/L | 1 mg/L | 0.5 mg/L | O=C(Cn1cncn1)NNC(=O)[C@@H]1CC[C@@H]2CN1C(=O)N2OS(=O)(=O)[O-].[Na+] [Example 8] |  |  |  |  |  |  | 
8 | 0.25 mg/L | 1 mg/L | > 32 mg/L | 0.5 mg/L | 4 mg/L | 1 mg/L | 0.25 mg/L | Cc1nnnn1CC(=O)NNC(=O)[C@@H]1CC[C@@H]2CN1C(=O)N2OS(=O)(=O)[O-].[Na+] [Example 9] |  |  |  |  |  |  | 
9 | 1 mg/L | 4 mg/L | > 32 mg/L | 1 mg/L | 32 mg/L | > 32 mg/L | 1 mg/L | O=C(Cn1cccn1)NNC(=O)[C@@H]1CC[C@@H]2CN1C(=O)N2OS(=O)(=O)[O-].[Na+] [Example 11] |  |  |  |  |  |  | 
10 | 1 mg/L | 2 mg/L | > 32 mg/L | 0.5 mg/L | 4 mg/L | 4 mg/L | 2 mg/L | CCOC(=O)Cc1nnnn1CC(=O)NNC(=O)[C@@H]1CC[C@@H]2CN1C(=O)N2OS(=O)(=O)[O-].[Na+] [Example 12] |  |  |  |  |  |  | 
11 | 1 mg/L | 2 mg/L | > 32 mg/L | 1 mg/L | 32 mg/L | 32 mg/L | 2 mg/L | CCOC(=O)Cc1nnn(CC(=O)NNC(=O)[C@@H]2CC[C@@H]3CN2C(=O)N3OS(=O)(=O)[O-])n1.[Na+] [Example 13] |  |  |  |  |  |  | 
12 | 1 mg/L | 1 mg/L | > 32 mg/L | 1 mg/L | 4 mg/L | 4 mg/L | 0.5 mg/L | NC(=O)Cc1nnn(CC(=O)NNC(=O)[C@@H]2CC[C@@H]3CN2C(=O)N3OS(=O)(=O)[O-])n1.[Na+] [Example 14] |  |  |  |  |  |  | 
13 | 0.5 mg/L | 1 mg/L | > 32 mg/L | 0.5 mg/L | 2 mg/L | 2 mg/L | 0.5 mg/L | NC(=O)Cc1nnnn1CC(=O)NNC(=O)[C@@H]1CC[C@@H]2CN1C(=O)N2OS(=O)(=O)[O-].[Na+] [Example 15] |  |  |  |  |  |  | 
14 | 1 mg/L | 2 mg/L | > 32 mg/L | 1 mg/L | 2 mg/L | 2 mg/L | 1 mg/L | NC(=O)c1nnn(CC(=O)NNC(=O)[C@@H]2CC[C@@H]3CN2C(=O)N3OS(=O)(=O)[O-])n1.[Na+] [Example 16] |  |  |  |  |  |  | 
15 | 0.25 mg/L | 0.5 mg/L | > 32 mg/L | 0.25 mg/L | 1 mg/L | 1 mg/L | 0.25 mg/L | NC(=O)c1nnnn1CC(=O)NNC(=O)[C@@H]1CC[C@@H]2CN1C(=O)N2OS(=O)(=O)[O-].[Na+] [Example 17] |  |  |  |  |  |  | 
16 | 0.25 mg/L | 1 mg/L | > 32 mg/L | 0.5 mg/L | 1 mg/L | 1 mg/L | 0.5 mg/L | O=C(Cn1cccc1)NNC(=O)[C@@H]1CC[C@@H]2CN1C(=O)N2OS(=O)(=O)[O-].[Na+] [Example 18] |  |  |  |  |  |  | 
17 | 0.5 mg/L | 1 mg/L | > 32 mg/L | 0.5 mg/L | 2 mg/L | 2 mg/L | 0.5 mg/L | C[C@@H](C(=O)NNC(=O)[C@@H]1CC[C@@H]2CN1C(=O)N2OS(=O)(=O)[O-])n1ccnc1.[Na+] [Example 20] |  |  |  |  |  |  | 
18 | 2 mg/L | 4 mg/L | > 32 mg/L | 2 mg/L | 8 mg/L | 8 mg/L | 2 mg/L | CCOC(=O)c1nccn1CC(=O)NNC(=O)[C@@H]1CC[C@@H]2CN1C(=O)N2OS(=O)(=O)[O-].[Na+] [Example 21] |  |  |  |  |  |  | 
19 | 0.5 mg/L | 2 mg/L | > 32 mg/L | 1 mg/L | 2 mg/L | 2 mg/L | 0.5 mg/L | Nc1nnnn1CC(=O)NNC(=O)[C@@H]1CC[C@@H]2CN1C(=O)N2OS(=O)(=O)O [Example 24, (2S,5R)-N′-[(5-amino-1H-tetrazol-1-yl)acetyl]-7-oxo-6-(sulfooxy)-1,6-diazabicyclo[3.2.1]octane-2-carbohydrazide] |  |  |  |  |  |  | 
20 | 1 mg/L | 2 mg/L | > 32 mg/L | 1 mg/L | 1 mg/L | 1 mg/L | 0.5 mg/L | NCc1nnnn1CC(=O)NNC(=O)[C@@H]1CC[C@@H]2CN1C(=O)N2OS(=O)(=O)O [Example 25] |  |  |  |  |  |  | 
21 | 0.5 mg/L | 1 mg/L | > 32 mg/L | 0.5 mg/L | 1 mg/L | 1 mg/L | 0.5 mg/L | NCc1nnn(CC(=O)NNC(=O)[C@@H]2CC[C@@H]3CN2C(=O)N3OS(=O)(=O)O)n1 [Example 26] |  |  |  |  |  |  | 
22 | 1 mg/L | 2 mg/L | > 32 mg/L | 1 mg/L | 2 mg/L | 2 mg/L | 1 mg/L | Nc1ncn(CC(=O)NNC(=O)[C@@H]2CC[C@@H]3CN2C(=O)N3OS(=O)(=O)O)n1 [Example 27] |  |  |  |  |  |  | 
23 | 0.25 mg/L | 1 mg/L | > 32 mg/L | 0.5 mg/L | 0.5 mg/L | 0.5 mg/L | 0.25 mg/L | NCCc1nnn(CC(=O)NNC(=O)[C@@H]2CC[C@@H]3CN2C(=O)N3OS(=O)(=O)O)n1 [Example 28] |  |  |  |  |  |  | 
24 | 0.25 mg/L | 1 mg/L | > 32 mg/L | 0.5 mg/L | 0.5 mg/L | 0.5 mg/L | 0.5 mg/L | NCCCc1nnn(CC(=O)NNC(=O)[C@@H]2CC[C@@H]3CN2C(=O)N3OS(=O)(=O)O)n1 [Example 30] |  |  |  |  |  |  | 
25 | 0.5 mg/L | 1 mg/L | > 32 mg/L | 0.5 mg/L | 1 mg/L | 1 mg/L | 0.5 mg/L | NCCCc1nnnn1CC(=O)NNC(=O)[C@@H]1CC[C@@H]2CN1C(=O)N2OS(=O)(=O)O [Example 31] |  |  |  |  |  |  | 
26 | 0.25 mg/L | 1 mg/L | > 32 mg/L | 0.5 mg/L | 0.5 mg/L | 0.5 mg/L | 0.5 mg/L | NCCCCc1nnn(CC(=O)NNC(=O)[C@@H]2CC[C@@H]3CN2C(=O)N3OS(=O)(=O)O)n1 [Example 32] |  |  |  |  |  |  | 
27 | 0.5 mg/L | 1 mg/L | > 32 mg/L | 1 mg/L | 4 mg/L | 0.5 mg/L | 0.5 mg/L | NCCCCc1nnnn1CC(=O)NNC(=O)[C@@H]1CC[C@@H]2CN1C(=O)N2OS(=O)(=O)O [Example 33] |  |  |  |  |  |  | 
